Reference: US10022415B2, “External composition for skin containing an enzyme-treated saponin fraction derived from the root of Camellia sinensis” (AMOREPACIFIC CORPORATION, priority 2014, dated 2018)

Columns and labels:
Tyrosinase = Tyrosinase hinderance effect; format: biochemical, Mushroom; details: 37° C., 10 minutes, absorbance 475 nm; concentration not given
Protocol: Tyrosinase enzyme is that extracted from Mushroom and used the product of SIGMA Company. At first, tyrosine being the substrate was dissolved in the distilled water to make 0.3 mg/ml of solution and 1.0 ml of each solution was put in the tube, and then, 1.0 ml of potassium-phosphate buffer solution (0.1 mol concentration, pH 6.8) and 0.7 ml of the distilled water were added.
Each sample liquid, 0.2 ml, which was prepared by mixing the enzyme-treated saponin fraction derived from the root of camellia sinensis of the above Example 1 of the present invention in ethanol solution in the proper concentration was put in the reaction liquid and then was reacted in 37° C. incubator for 10 minutes. At this time, the control was prepared by adding only 0.2 ml of solution, instead of each of sample liquid, ascorbic acid was used as the positive control. 0.1 ml of 2500 units/ml tyrosinase solution was added to the reaction liquid and reacted in 37° C. incubator for 10 minutes. The tube with the reaction liquid was put in the ice water to stop the reaction by quenching and the absorbance at the wavelength of 475 nm was determined with the photoelectric spectrophotometer, and then the result was represented in the below Table 21. Each of tyrosinase hinderance effect was calculated by the below mathematical formula 5.

elastase = target: T1, elastase (Sus scrofa, UniProt P00772); assay: Inhibition of elastase activity; format: biochemical; details: EGCG 250 μM as positive control; 25° C., 15 minutes, absorbance 415 nm
T1 construct: purchased Sigma Aldrich E0127
T1 sequence (P00772 27-266): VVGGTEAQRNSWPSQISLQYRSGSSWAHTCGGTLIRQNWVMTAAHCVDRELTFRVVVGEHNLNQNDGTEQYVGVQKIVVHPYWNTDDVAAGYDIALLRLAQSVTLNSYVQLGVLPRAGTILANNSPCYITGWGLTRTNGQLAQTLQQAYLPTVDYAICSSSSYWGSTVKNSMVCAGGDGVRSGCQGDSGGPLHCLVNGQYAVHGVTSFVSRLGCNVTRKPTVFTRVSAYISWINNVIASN
Protocol: An ability hindering elastase activity of the enzyme-treated saponin fraction derived from the root of Camellia sinensis was determined in comparison with EGCG. The elastase and substrate as used were commercially purchased from Sigma Aldrich in […]0127), and the saponin fraction was used as the enzyme-treated saponin fraction derived from the root of Camellia sinensis roots as obtained from Example 1. 50 μL of Test material as represented in the below Table 1 and 20 μg/mL elastase·50 μL of solution of type III were mixed with that prepared with […] Tris-HCl buffer (pH 8.0) in 96-well plate. 250 μM of EGCG was used as a positive control, and non-treated group as a negative control used the distilled water. […] After completing the reaction, the absorption at the wavelength of 415 nm was determined. […] A: No addition of the experimental sample, Absorbance at the wavelength of 415 nm with the addition of enzyme B: No addition of the experimental sample, Absorbance at the wavelength of 415 nm without the addition of enzyme C: Addition of the experimental sample, Absorbance at the wavelength of 415 nm with the addition of enzyme D: Addition of the experimental sample, Absorbance at the wavelength of 415 nm without the addition of enzyme

B16/F10 melanoma cell = assay: Inhibition of melanin generation in B16/F10 melanoma cell; format: cell-based; details: sample comprising 0.001 wt % of test material, cultured 3 days
Protocol: The sample comprising 0.001 wt % of the saponin fraction derived from the root of camellia sinensis of the above Example 1 and kojic acid, respectively, as the test material, was added to the culture of B16/F10 melanoma cell (Korean cell strain bank) at the constant concentration and cultured for 3 days, washed with PBS, dissolved with 1N NaOH and the absorbance was determined at 405 nm. At this time, the cell added no test material was considered as the control and the degree for hindering the melanin generation of each test material was determined by comparing the contents of melanin in the control. The inhibition rate of melanin generation was calculated according to mathematical formula 6 as below and its result was represented in Table 22.

5α-reductase = target: T2, 5α-reductase (Homo sapiens, UniProt P31213); assay: Inhibition of 5α-reductase activity, [14C]testosterone to DHT in HEK293-5αR2 cell; format: cell-based; details: 2 hours, negative control 48.0
T2 construct: 3xFLAG; expressed in transfected cells; host or cells: HEK293
T2 sequence (P31213 1-254): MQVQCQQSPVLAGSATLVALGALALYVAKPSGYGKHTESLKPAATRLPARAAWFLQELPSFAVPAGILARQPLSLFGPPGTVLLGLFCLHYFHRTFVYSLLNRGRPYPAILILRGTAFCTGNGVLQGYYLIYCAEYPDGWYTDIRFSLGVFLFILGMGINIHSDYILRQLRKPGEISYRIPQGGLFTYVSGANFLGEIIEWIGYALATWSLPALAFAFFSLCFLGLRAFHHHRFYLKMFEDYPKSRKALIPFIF
Protocol: In order to identify the effect for inhibiting 5α-reductase activity, a ratio of [^14C]testosterone changed into [^14C]dihydrotestosterone (DHT) in HEK293-5αR2 cell was determined. […] The next day, new medium with the enzyme substrate and inhibitor was changed. 0.05 μCi [^14C]testosterone (Amersham Pharmacia biotech, UK) as the substrate of the medium was used.
Thereafter, the culture media was collected and steroid was extracted with 800 μl of ethylacetate and then, after separating the organic solvent layer of the top and drying it, the remaining residue was dissolved with 50 μl of ethylacetate and developed it by using ethylacetate-hexane (1:1) as a solvent on Silica plastic sheet kieselgel 60 F254.

collagenase (MMP-1) = assay: Collagenase (MMP-1) generation in human fibroblast, ELISA; format: cell-based; details: saponin fraction 30 μg/ml for 24 hours, non-treated group = 100
Protocol: Fibroblast of a human was placed in 96-well plate (96-well microtiter plate) with Dulbecco's Modified Eagle's Media (DMEM) containing 2.5% fetal bovine serum to be 5,000 cells/well, and was cultured at 5% CO2, at the temperature of 37° C. of incubator to grow to about 70˜80% confluency. The saponin fraction derived from the root of Camellia sinensis of the above Example 1 was treated for 24 hours in a concentration of 30 μg/ml, and then the cell culture was collected.
The degree of the collagenase generation for the cell culture collected by using the commercially available collagenase determination Apparatus (AmershamPharmacia Corporation in U.S.A., Catalog #: RPN 2610) was determined. At first, the collected cell culture was placed in 96-well plate evenly covered with the first collagenase antibody and antigen-antibody reaction was performed in thermostat container for three hours. […]
The absorbance of 96-well plate representing yellow color was determined by using Absorptiometer at 405 nm, the degree of collagenase synthesis was calculated by the below Mathematical formula 2, and the result was shown in Table 2 as below. In this case, the absorbance for the reaction of the cell culture collected from the group without treating with the composition was used as the control.

procollagen type I = assay: Promotion of collagen biosynthesis in fibroblast, procollagen type I ELISA; format: cell-based; details: 10 ng/ml, 24 hours, non-treated group = 100
Protocol: In order to investigate the promoting effect of the collagen biosynthesis, the enzyme-treated saponin fraction derived from the root of camellia sinensis of the present invention was determined in comparison with TGF-β. At first, fibroblast was seeded as 10^5 cells per a well in 24-well plate and cultured until growing to about 90% confluency. After incubating it with non-serum DMEM medium for 24 hours, it was treated with 10 ng/ml of the saponin fraction derived from the root of camellia sinensis of the above Example 1 and TGF-β dissolved in the non-serum medium, respectively and incubated in CO2 incubator for 24 hours. The supernatant of them was taken and it was examined as to whether procollagen was increased or not by using procollagen type I ELISA kit. The result is represented in Table 8, and the ability for synthesizing the collagen was compared by considering that the non-treated group was 100.

Molecule: O=C1O[C@H]([C@@H](O)CO)C(O)=C1O [Ascorbic acid]
- Tyrosnase hinderance rate (%) (Tyrosinase): 52%

Molecule: O=C(O[C@@H]1Cc2c(O)cc(O)cc2O[C@@H]1c1cc(O)c(O)c(O)c1)c1cc(O)c(O)c(O)c1 [EGCG]
- Degree of the inhibiton (%) of elastase activity (elastase): 65%

Molecule: O=c1cc(CO)occ1O [Kojic acid]
- Inhibition rate of melanin generation (%) (B16/F10 melanoma cell): 53%

Molecule: CC(C)(C)NC(=O)[C@H]1CC[C@H]2[C@@H]3CC[C@H]4NC(=O)C=C[C@]4(C)[C@H]3CC[C@]12C [Positive control, finasteride]
- Conversion rate (%) of testosterone into dihydrotestosterone (5α-reductase): 27.6%

Molecule: CC1=C(/C=C/C(C)=C/C=C/C(C)=C/C(=O)O)C(C)(C)CCC1 [Retinoic acid]
- Degree of the expression (%) of collagenase (collagenase (MMP-1)): 75%

Molecule: TGF-β: comparison substance for collagen biosynthesis
- Ability for synthesizing collagen (%) (procollagen type I): 183.5%
